# Patent US20240423973A1, “COMPOUNDS, PHARMACEUTICAL COMPOSITIONS, AND METHODS FOR THE TREATMENT, PREVENTION, OR MANAGEMENT OF HYPERPROLIFERATIVE DISORDERS” (VINCERX PHARMA GMBH, priority 2021, published 2024)
# *1 amine or outer side, *2 acyl side, *3 side chain or, on linkers, in order; H or OH if unused. Where a SMILES comes first, the peptide text is derived from it. Bridges are numbered along the chain shown (N, C = ends). Roman numbers before positions name the chains, in order. [ ]: non-standard residue; d: D form. The star is where a group is joined. X1 = CCCNC(=O)Nc1cccc(S(=O)(=O)Nc2cccc([C@@H](CC(=O)O)NC(=O)Nc3ccc(N*)cc3)c2)c1; Camptothecin(7-Et) = CCc1c2c(nc3ccccc13)-c1cc3c(c(=O)n1C2)COC(=O)[C@@]3(CC)O*; Glutaryl = O=C(CCCC(=O)[*:2])[*:1]; PEG3 = NCCOCCOCCOCCC(=O)O; CO = O=C([*:1])[*:2]; Sar = CNCC(=O)O
# What was measured:
# [1] = Pharmacokinetics in rat after intravenous administration; assay type: in vivo; conditions: male rats, intravenous 0.5 mg/kg bolus, plasma, non-compartmental analysis; for Vd: read-out: Vss
# Experimental: Male rats (n=3) were given an intravenous 0.5 mg/kg bolus dose of test article dissolved in plasma with 1% DMSO and 1% ethanol (Ex A3 only). Serial blood samples were collected up to 24 hours post-dose. Plasma was harvested from blood samples and stored frozen until sample analysis. Test article plasma concentrations were analyzed by LC/MS/MS.
# [2] = system: 786-O; test: Cytotoxicity in vitro in the presence and absence of elastase (MTT assay); assay type: cell-based, human; conditions: 786-O cells, 72 h
# Experimental: (§1) Cultivation of cells was performed according to standard procedures with the media recommended by the provider. The cells, in a total volume of 100 μL, were seeded in a 96-well plate with a white bottom (#3610). After a 24 h incubation period at 37° C. and 5% CO2, the medium was exchanged by adding 90 μL fresh medium. The treatment started by adding the test compound in 10 μL of culture medium to the cells in triplicates. Concentrations ranging from 10^−5 M to 10^−13 M were chosen. Two identically treated sets of samples were prepared. One set was treated with the test compound alone, whereas to the second set the compound and 10 nM elastase was added followed by a 72 h incubation period at 37° C. and 5% CO2. The proliferation was detected using the MTT assay (ATCC). At the end of the incubation period the MTT reagent was added to all samples for 4h. Lysis of the cells followed by addition of the detergent was done overnight. The formed dye was detected at 570 nm. The proliferation of untreated but otherwise identically handled cells was define as the […].
# [3] = system: HT29; test: as above; assay type: cell-based, human; conditions: HT29 cells, 72 h
# Experimental: as §1
# [4] = system: NCI H292; test: as above; assay type: cell-based, human; conditions: NCI H292 cells, 72 h
# Experimental: as §1
# [5] = system: SUM149; test: as above; assay type: cell-based; conditions: SUM149 cells, 72 h
# Experimental: as §1
Compound,AUC [1] [ng·h/mL],clearance [1] [mL/min/kg],half-life [1] [h],Vd [1] [L/kg],IC50 ([2]; compound alone (no elastase)) [nM],IC50 ([2]; with 10 nM elastase) [nM],IC50 ([3]; compound alone (no elastase)) [nM],IC50 ([3]; with 10 nM elastase) [nM],IC50 ([4]; compound alone (no elastase)) [nM],IC50 ([4]; with 10 nM elastase) [nM],IC50 ([5]; compound alone (no elastase)) [nM],IC50 ([5]; with 10 nM elastase) [nM]
CCCNC(=O)Nc1cccc(S(=O)(=O)Nc2cccc([C@@H](CC(=O)O)NC(=O)Nc3ccc(NC(=O)NCCOCCOCCOCCC(=O)NCCCC[C@H](NC(=O)CCOCCOCCOCCNC(=O)Nc4ccc(NC(=O)N[C@H](CC(=O)O)c5cccc(NS(=O)(=O)c6cccc(NC(=O)NCCC)c6)c5)cc4)C(=O)NCCOCCOCCOCCC(=O)N[C@@H](CC(=O)O)C(=O)N4CCC[C@H]4C(=O)N[C@H](C(=O)O[C@]4(CC)C(=O)OCc5c4cc4n(c5=O)Cc5c-4nc4ccccc4c5CC)C(C)C)cc3)c2)c1 [Compound A3],50000 to 150000,0.05 to 0.5,10 to 15,0.01 to 0.1,–,–,–,–,–,–,–,–
"CCCNC(=O)Nc1cccc(S(=O)(=O)Nc2cccc([C@@H](CC(=O)O)NC(=O)Nc3ccc(NC(=O)NCCN(C)CCN(C)CCN(C)CC(=O)N[C@@H](CC(N)=O)C(=O)N4CCC[C@H]4C(=O)N[C@H](C(=O)O[C@]4(CC)C(=O)OCc5c4cc4n(c5=O)Cc5c-4nc4ccccc4c5CC)C(C)C)cc3)c2)c1.Cl.Cl.Cl [Compound B4b, (4S)-4,11-diethyl-3,14-dioxo-3,4,12,14-tetrahydro-1H-pyrano[3′,4′:6,7]indolizino[1,2-b]quinolin-4-yl N^2-{13-[4-({[(1R)-2-carboxy-1-{3-[({3-[(propylcarbamoyl)amino]phenyl}sulfonyl)amino]phenyl}ethyl]carbamoyl}amino)anilino]-3,6,9-trimethyl-13-oxo-12-aza-3,6,9-triazoniatridecan-1-oyl}-L-asparaginyl-L-prolyl-L-valinate trichloride]",1000 to 10000,0.5 to 5,5 to 10,> 0.1,10 to 100,0.1 to 1,10 to 100,0.1 to 1,10 to 100,0.1 to 1,10 to 100,0.01 to 0.1
CCCNC(=O)Nc1cccc(S(=O)(=O)Nc2cccc([C@@H](CC(=O)O)N(C(=O)NC(N)=O)c3ccc(NCCCCOC(=O)C[C@H](NC(=O)CCOCCOCCOCCNc4ccc(N(C(=O)NC(N)=O)[C@H](CC(=O)O)c5cccc(NS(=O)(=O)c6cccc(NC(=O)NCCC)c6)c5)cc4)C(=O)N4CCC[C@H]4C(=O)N[C@H](C(=O)O[C@]4(CC)C(=O)OCc5c4cc4n(c5=O)Cc5c-4nc4ccccc4c5CC)C(C)C)cc3)c2)c1 [Compound C4],–,–,–,–,10 to 100,0.01 to 0.1,> 100,0.01 to 0.1,1.1 to 10,0.01 to 0.1,1.1 to 10,0.01 to 0.1
"CCCNC(=O)Nc1cccc(S(=O)(=O)Nc2cccc([C@@H](CC(=O)O)NC(=O)Nc3ccc(NC(=O)NCCOCCOCCOCCC(=O)N[C@@H](CC(=O)OCCCCN(C)C)C(=O)N4CCC[C@H]4C(=O)N[C@H](C(=O)O[C@]4(CC)C(=O)OCc5c4cc4n(c5=O)Cc5c-4nc4ccccc4c5CC)C(C)C)cc3)c2)c1 [Compound C6, sodium (3R)-3-[({4-[({(10S)-10-[(2S)-2-{[(2S)-1-{[(4S)-4,11-diethyl-3,14-dioxo-3,4,12,14-tetrahydro-1H-pyrano[3′,4′:6,7]indolizino[1,2-b]quinolin-4-yl]oxy}-3-methyl-1-oxobutan-2-yl]carbamoyl}pyrrolidine-1-carbonyl]-2-methyl-8,12-dioxo-7,15,18,21-tetraoxa-2,11-diazatricosan-23-yl}carbamoyl)amino]phenyl}carbamoyl)amino]-3-[3-({3-[(propylcarbamoyl)amino]benzene-1-sulfonyl}amino)phenyl]propanoate]",–,–,–,–,10 to 100,0.1 to 1,10 to 100,0.1 to 1,10 to 100,0.1 to 1,10 to 100,0.01 to 0.1
CCCNC(=O)Nc1cccc(S(=O)(=O)Nc2cccc([C@@H](CC(=O)OCCCCN)NC(=O)Nc3ccc(NC(=O)NCCOCCOCCOCCC(=O)N[C@@H](CC(=O)OCCCCN)C(=O)N4CCC[C@H]4C(=O)N[C@H](C(=O)O[C@]4(CC)C(=O)OCc5c4cc4n(c5=O)Cc5c-4nc4ccccc4c5CC)C(C)C)cc3)c2)c1 [Compound C7],–,–,–,–,10 to 100,0.1 to 1,> 100,0.1 to 1,1.1 to 10,0.01 to 0.1,1.1 to 10,< 0.01
CCCNC(=O)Nc1cccc(S(=O)(=O)Nc2cccc([C@@H](CC(=O)OCCCN)NC(=O)Nc3ccc(NC(=O)NCCOCCOCCOCCC(=O)N[C@@H](CC(=O)OCCCN)C(=O)N4CCC[C@H]4C(=O)N[C@H](C(=O)O[C@]4(CC)C(=O)OCc5c4cc4n(c5=O)Cc5c-4nc4ccccc4c5CC)C(C)C)cc3)c2)c1 [Compound C8],–,–,–,–,10 to 100,0.1 to 1,> 100,0.1 to 1,1.1 to 10,0.1 to 1,1.1 to 10,0.1 to 1
CCCNC(=O)Nc1cccc(S(=O)(=O)Nc2cccc([C@@H](CC(=O)OCC[N+](C)(C)C)NC(=O)Nc3ccc(NC(=O)NCCOCCOCCOCCC(=O)N[C@@H](CC(=O)OCC[N+](C)(C)C)C(=O)N4CCC[C@H]4C(=O)N[C@H](C(=O)O[C@]4(CC)C(=O)OCc5c4cc4n(c5=O)Cc5c-4nc4ccccc4c5CC)C(C)C)cc3)c2)c1 [Compound C9],–,–,–,–,10 to 100,1.1 to 10,10 to 100,0.1 to 1,10 to 100,0.1 to 1,10 to 100,0.1 to 1
CCCNC(=O)Nc1cccc(S(=O)(=O)Nc2cccc([C@@H](CC(=O)O)NC(=O)Nc3ccc(NC(=O)NCCN(C)CCN(C)CCN(C)CC(=O)NCCN(C)CCN(C)CCN(C)CC(=O)N[C@@H](CC(N)=O)C(=O)N4CCC[C@H]4C(=O)N[C@H](C(=O)O[C@]4(CC)C(=O)OCc5c4cc4n(c5=O)Cc5c-4nc4ccccc4c5CC)C(C)C)cc3)c2)c1 [Compound D1],–,–,–,–,10 to 100,1.1 to 10,10 to 100,1.1 to 10,10 to 100,1.1 to 10,10 to 100,0.1 to 1
CCCNC(=O)Nc1cccc(S(=O)(=O)Nc2cccc([C@H](CC(=O)O)NC(=O)Nc3ccc(NC(=O)NCCN(C)CCN(C)CCN(C)CC(=O)NCCN(C)CCN(C)CCN(C)CC(=O)N[C@@H](CC(N)=O)C(=O)N4CCC[C@H]4C(=O)N[C@H](C(=O)O[C@]4(CC)C(=O)OCc5c4cc4n(c5=O)Cc5c-4nc4ccccc4c5CC)C(C)C)cc3)c2)c1 [Compound D2],–,–,–,–,10 to 100,0.1 to 1,10 to 100,0.1 to 1,10 to 100,0.1 to 1,1.1 to 10,0.1 to 1
CCCNC(=O)Nc1cccc(S(=O)(=O)Nc2cccc([C@@H](CC(=O)O)NC(=O)Nc3ccc(NC(=O)NCCOCCOCCOCCC(=O)N[C@@H](CCCCNC(=O)CCCC(=O)NCCOCCOCCOCCC(=O)N[C@@H](CC(=O)O)C(=O)N4CCC[C@H]4C(=O)N[C@H](C(=O)O[C@]4(CC)C(=O)OCc5c4cc4n(c5=O)Cc5c-4nc4ccccc4c5CC)C(C)C)C(=O)NCCC(=O)O)cc3)c2)c1 [Compound E1],10000 to 50000,0.5 to 5,5 to 10,> 0.1,–,–,–,–,–,–,–,–
CCCNC(=O)Nc1cccc(S(=O)(=O)Nc2cccc([C@@H](CC(=O)O)NC(=O)Nc3ccc(NC(=O)NCCOCCOCCOCCC(=O)N[C@@H](CCCCNC(=O)CCCC(=O)NCCOCCOCCOCCC(=O)N[C@@H](CC(=O)O)C(=O)N4CCC[C@H]4C(=O)N[C@H](C(=O)O[C@]4(CC)C(=O)OCc5c4cc4n(c5=O)Cc5c-4nc4ccccc4c5CC)C(C)C)C(=O)NCCCCCCCC(=O)O)cc3)c2)c1 [Compound E2],50000 to 150000,0.5 to 5,5 to 10,0.01 to 0.1,–,–,–,–,–,–,–,–
CCCNC(=O)Nc1cccc(S(=O)(=O)Nc2cccc([C@@H](CC(=O)O)NC(=O)Nc3ccc(NC(=O)NCCOCCOCCOCCC(=O)N[C@@H](CCCCNC(=O)CCCC(=O)N(C)CC(=O)N(C)CC(=O)N(C)CC(=O)N(C)CC(=O)O)C(=O)NCCOCCOCCOCCC(=O)N[C@@H](CC(=O)O)C(=O)N4CCC[C@H]4C(=O)N[C@H](C(=O)O[C@]4(CC)C(=O)OCc5c4cc4n(c5=O)Cc5c-4nc4ccccc4c5CC)C(C)C)cc3)c2)c1 [Compound E3] (I: {X1-CO-PEG3}-K[PEG3]DPV-{Camptothecin(7-Et)} / II: [Sar][Sar][Sar][Sar]-OH; linker I:1-II:N via Glutaryl),10000 to 50000,0.5 to 5,5 to 10,> 0.1,–,–,–,–,–,–,–,–
